# Data as given in patent US12233060B2, “Inhibitors of Ataxia-Telangiectasia Mutated and Rad3-related protein kinase (ATR) for use in methods of treating cancer” (THE INSTITUTE OF CANCER RESEARCH: ROYAL CANCER HOSPITAL, priority 2016, dated 2025).
# Experiments:
# [1] = test system: TOV21G (ARID1A mutant) and RMG1 (ARID1A wildtype) cells; experiment: Five-day dose response in OCCC cell lines TOV21G and RMG1; assay type: cell-based, human; conditions: 5 days exposure
# Description: FIG. 3. In vivo ARID1A/ATR synthetic lethality. A. Schematic of VX-970 therapy experiment in mice bearing established HCT116 ARID1A^+/+ and ARID1A^−/− xenografts. Cells were inoculated subcutaneously into nude mice and tumors allowed to establish for 10 days. Mice were then randomized to treatment regimens of either VX-970 (60 mg/kg, 4× weekly by oral gavage) or vehicle. Mice were then treated for a subsequent 40 days. Tumor volume was monitored twice weekly. B. Relative tumor volume plot from (A) showing efficacy of VX-970 and selectivity for ARID1A^−/− xenografts* p=0.024, ANOVA. C. Schematic of tumor incidence experiment in mice with non-established HCT116 ARID1A^+/+ and ARID1A^−/− xenografts. Mice were inoculated with cells as before, randomized and then treated with VX-970. […] Tumor volume was monitored twice weekly and overall tumour incidence was assessed 40 days later. […] PARP-1, cleaved PARP-1 (85 kDa fragment) and tubulin were detected by western blot. […] Caspase3/7 activity was assessed using Caspase-Glo and total cellular viability was estimated using CellTitre-Glo. Luminescence ratios for Caspase-Glo (i.e. apoptotic cells) and CellTitre-Glo (ie viable cells) was determined for each dose and normalized to DMSO treated samples. *Student's t-test, p<0.05. […]
# Short-term survival assays were performed in 384-well plates. […] Colonies were counted manually. […]
# [2] = test system: HCT116 ARID1A−/− xenografts; experiment: In vivo efficacy, HCT116 ARID1A−/− subcutaneous xenografts; design: species or system mice
# Description: FIG. 3. In vivo ARID1A/ATR synthetic lethality. A. Schematic of VX-970 therapy experiment in mice bearing established HCT116 ARID1A^+/+ and ARID1A^−/− xenografts. Cells were inoculated subcutaneously into nude mice and tumors allowed to establish for 10 days. Mice were then randomized to treatment regimens of either VX-970 (60 mg/kg, 4× weekly by oral gavage) or vehicle. Mice were then treated for a subsequent 40 days. Tumor volume was monitored twice weekly. B. Relative tumor volume plot from (A) showing efficacy of VX-970 and selectivity for ARID1A^−/− xenografts* p=0.024, ANOVA. C. Schematic of tumor incidence experiment in mice with non-established HCT116 ARID1A^+/+ and ARID1A^−/− xenografts. Mice were inoculated with cells as before, randomized and then treated with VX-970. VX-970 or vehicle treatment was initiated on the day of cell implantation. Tumor volume was monitored twice weekly and overall tumour incidence was assessed 40 days later. D. Bar chart of incidence 40 days after implantation of HCT116 ARID1A^+/+ and ARID1A^−/− cells. Each group contained 15 animals and fractions above bars indicate the number of animals in which a measurable xenograft formed. *p=0.027 Fisher's exact test. E and F. Tumor growth in experiment described in (C). *p=0.015 ANOVA. G. VX-970 dose response curves from TOV21G (ARID1A mutant) and RMG1 (ARID1A wildtype) cells. Cells were exposed to VX-970 for 5 days. […] PARP-1, cleaved PARP-1 (85 kDa fragment) and tubulin were detected by western blot. […] Caspase3/7 activity was assessed using Caspase-Glo and total cellular viability was estimated using CellTitre-Glo. Luminescence ratios for Caspase-Glo (i.e. apoptotic cells) and CellTitre-Glo (ie viable cells) was determined for each dose and normalized to DMSO treated samples. *Student's t-test, p<0.05. […]
# In vivo efficacy studies were performed using HCT116 […], HCT116 ARID1A^−/− and TOV21G cells injected subcutaneously in the flank of female CD-1 Nude mice. […] Tumours were measured manually by calliper trice weekly and animals were sacrificed when tumours reached >15 mm in any direction.
# SYO1 cells = experiment: FACS cell cycle and Caspase Glo apoptosis in SYO1 cells; assay type: cell-based, human
# Description: FIG. 10. ATR inhibitors elicit replication fork stress in SS tumour cells. […] Error bars represent SEM from triplicate experiments. p values were derived from Student's t tests. B. Western blot illustrating PARP1 cleavage in SYO1 cells exposed to VX970 for 24 hours. C. Western blot illustrating H2AX phosphorylation (γH2AX) in SYO1 cells exposed to VX970 (0.1 μM). D. Confocal microspcopy images illustrating H2AX phosphorylation in SYO1 cells exposed to VX970 (0.1 μM, 24 hours). E. Bar chart depicting data from (D). Error bars represent SEM from 100 images. p values were derived from Student's t tests. F. Replication fork speeds in SYO1 cells exposed to 0.1 μM VX970 for two hours. p value was derived from a Student's t test. G. Replication fork speeds in HCT116 cells exposed to 0.1 μM VX970 for two hours in the presence and absence of ectopic expression of a SS18-SSX1 fusion protein. p values were derived from Student's t tests. Expression of SS18-SSX1 or exposure to VX970 reduced fork speed. Combined SS18-SSX1 expression and VX970 exposure enhanced the reduction in fork speed. H and I. FACS plots from SYO1 cells exposed to VX970.
structure (smiles),measurement,setting,value
"CNCc1ccc(-c2cc(-c3nc(-c4ccc(S(=O)(=O)C(C)C)cc4)cnc3N)on2)cc1 [VX-970, 5-[4-(Isopropylsulfonyl)phenyl]-3-(3-{4-[(methylamino)methyl]phenyl}-1,2-oxazol-5-yl)-2-pyrazinamine]",sensitivity of TOV21G vs RMG1,[1],more sensitive to both VE-821 and VX-970
same,growth of established ARID1A−/− xenografts,"[2]; 60 mg/kg, 4x weekly oral gavage, 40 days",significantly inhibited the growth
same,growth of ARID1A−/− tumours under continued treatment,"[2]; non-established xenograft experiment, p=0.015 ANOVA",dramatically slowed the growth
same,frequency of ARID1A−/− tumour formation,"[2]; treatment from day of cell implantation, incidence 40 days later, 15 animals per group",27%
same,sub G1 fraction,SYO1 cells; 0.1 μM,increase in the sub G1 fraction
same,"cell cycle, S phase",SYO1 cells; SS tumour cells exposed to VX970 (0.1 μM),arrest in S phase
same,apoptosis (Caspase Glo),SYO1 cells; SYO1 cells,"apoptosis, estimated by Caspase Glo, caused by exposure"
